Data reported in patent publication US8158811B2, “Unsaturated fatty hydroxy acid derivatives and the dermocosmetologic use thereof” (Pierre Fabre Dermo-Cosmetique, priority 2005, dated 2012).

Tests used:
[1] = tested on: murine melanome cell line B16-F10; assay: melanin synthesis, colorimetric assay, basal and after α-MSH; type: cell-based; conditions: Mus musculus, 1 μg/ml, alpha MSH 1 μM, read-out: inhibition of alpha MSH activity (melanin increase)
Protocol: The modulating effect of unsaturated fatty hydroxy acid derivatives on melanogenesis was analysed. To do this, measurement of melanin synthesis by colorimetric assay was performed on a murine melanome cell line: line B16-F10.
The effect of products was investigated in a basal situation and after stimulation by α-MSH in order to determine depigmenting capacity.
Levels of extracellular and intracellular melanin were measured by spectrophotometry at a wavelength of 405 nm according to the protocol described by Anob et al., 1999. The amount of pigment was determined using a standard melanin range and analysis on Microwin software (Berthold Biotechnologies). A total protein assay was carried out for intracellular melanin samples by means of the BCA-Copper method at 540 nm. The standard range was made up using standard protein BSA (Bovine Serum Albumin).

Interleukin 8 = assay: release of Interleukin 8 by keratinocytes NHK stimulated with PMA + calcium ionophore A23187 (ELISA); type: cell-based, human; conditions: 3 μg/ml, keratinocytes, PMA + A23187 6 hours
Protocol: In this study, carried out using 96 well plates, we evaluated the activity of hydroxyl alkine acids on the production of Interleukin 8 produced in the keratinocytes by phorbol ester PMA and calcium ionophore A23187.
A suspension of keratinocytes in supplemented KSFM was divided between 96 well plates (3.10^4 cells/wells) and incubated for 16 hours at 37° C. under an atmosphere of 5% CO2. The keratinocytes were then rinsed with PBS in order to eliminate non adhering cells then exposed to the products to be tested included in non supplemented KSFM (which could interfere with the assay).
The concentration tested in culture was 3 μg/ml. This was retained after a preliminary test to evaluate cytotoxicity (neutral red) and is not cytotoxic.
3 wells were used for each treatment. Cells were preincubated for 60 minutes with the products to be tested then stimulated, in parallel to negative controls without stimulant: Phorbol Myristate Acetate (PMA) 1 μm+Calcium ionophore (A23187) 0.1 μm.
Incubation for 6 hours at 37° C. in a humid air atmosphere containing 5% CO2.
The culture medium for each of the wells was recovered, centrifuged at 3000 rpm and stored at −80° C.
Cytokine assay: IL8 was assayed using the ELISA kit immunoenzyme method (immunotech).
The results are given as percentage activity/stimulated control.
The compounds according to the invention were evaluated in terms of anti-inflammatory activity on the release of Interleukin 8 by human keratinocytes NHK stimulated by phorbol ester PMA+calcium ionophore A23187.

prostaglandin 6KF1α = assay: production of prostaglandin 6KF1α by keratinocytes stimulated with calcium ionophore A23187 (ELISA); type: cell-based; conditions: 3 μg/ml, A23187 1 μm 5 hours
Protocol: A suspension of keratinocytes in DMEM 10% foetal calf serum was divided into 6 well plates (1.2. 106cells/wells) and incubated for 16 hours at 37° C. in a 5% CO2 atmosphere. The keratinocytes were then rinsed with PBS in order to eliminate non adhering cells then exposed to the products to be tested included in DMEM without foetal calf serum (which could interfere with the assay).
The concentration tested in culture was 3 μg/ml. This was retained as the test concentration after a preliminary evaluation test for cytotoxicity (neutral red) and is not cytotoxic.
For each treatment, three wells were tested. Cells were pre-incubated for 60 minutes with the products to be tested then a stimulating agent was added to stimulate the arachidonic acid cascade (calcium ionophore) which was added for 5 hours: calcium ionophore A23187 was used at a concentration of 1 μm.
After 5 hours in culture, the culture medium for each well was recovered, centrifuged at 3000 rpm and stored at −80° C.
The production of prostaglandin 6KF1α for each of the tests was measured using a EUROMEDEX Elisa Kit.
Results are expressed as the percentage activity/stimulated control.

[2] = tested on: intracellular AOSs, fibroblast line L929; assay: in vitro assay of intracellular AOSs (H2DCF-DA probe) after H2O2/iron oxidative stress; type: cell-based, murin; conditions: 400 μg/ml, pre-incubation 3 h, L929, 18 tests
Excerpt: We set up an in vitro study model of oxidative stress induced by H2O2/iron as H2O2 generates huge amounts of intracellular AOSs as a result of a chain reaction triggered by oxidation of membrane lipids.
This technique is based on the use of a fluorescent probe, 6-carboxy-2′,7′-dichlorodihydro fluorescein diacetate, di (acetoxymethyl ester) (H2DCF-DA) which once it penetrates into the cell is deacetylated by intracellular esterases and thus forms H2DCF. This product is oxidized by intracellular AOSs into a highly fluorescent compound: 2′,7′-dichlorofluorescein (DCF) (Suematsu M et al., 1996, Free Radicals Practical Approach, Punchard ed. P 83-99).
The materials and methods used for in vitro assay of intracellular AOSs are given below. • a) Cell tool • Cutaneous murin fibroblast cell line L929. • b) Materials • 96 well flat based microplate. • Cytofluor II cytofluorameter: Ref. PERCEPTIVE BIOSYSTEMS. • c) Reagents • Cell culture reagents: • Dulbecco's Modified Eagle Medium as the culture medium (DMEM) • Foetal calf serum • Phosphate buffer PBS pH 7.4 • Trypsin EDTA (1X) Fluorescent probe • 6-carboxy-2′,7′-dichlorodihydrofluorescein diacetate, di(acetoxymethyl ester) (PM.675,43) Cell stimulation products • Hydrogen peroxide (H2O2) 3% Ref. GIFRER (Gifrer Barbezat Laboratory) • Ferrous ammonium sulphate (Fe^2+) • Ferric ammonium sulphate (Fe^3+) • d) Products tested:
For the evaluation of unsaturated fatty hydroxy acid derivatives, the dilutions are prepared in freshly prepared culture medium for a concentration range of 0.02, 0.2, 2 and 20 ng/ml. • e) Protocol. Cell culturing.
Cells from the fibroblast line L929 were cultured in 96-well flat base microplates in 100 μl of DMEM supplemented with 10% foetal calf serum. These were incubated overnight at 37° C. in a humid atmosphere at 5% CO2. The blank plate without cells was evaluated using 6 wells.
Dilutions of the products to be tested and reference molecule were made up in culture medium without foetal calf serum then deposited in 7 wells at a rate of 100 μl per well.
Cells were then incubated for 3 hours at 37° C. in a humid atmosphere at 5% CO2.
Cells were rinsed in PBS 1X at a rate of 100 μl per well. They were then incubated for 30 minutes at 37° C. in a humid atmosphere at 5% CO2 with 50 μl of the H2DCF-DA probe at 5 μM.
After 30 minutes of contact with the probe alone, cells were incubated for 30 minutes at 37° C. in a humid atmosphere at 5% CO2 with the addition of 25 μl of H2O2 at 800 μM and 25 μl of ferrous iron and ferric iron solution at 8 mM in order to obtain final concentrations of 200 μM of H2O2 and 2 mM of ferrous iron and ferric iron.
Cells were then rinsed with PBS 1X at a rate of 100 μl per well then incubated for 30 minutes at 37° C. in a humid atmosphere at 5% CO2 with 100 μl of PBS 1X.
This incubation for 1 h 30 minutes at 37° C. allows intracellular esterases to deacetylate the probe into H2DCF which can be oxidized by the intracellular AOSs into DCF: a fluorescent compound whose formation is proportional to the quantity of intracellular AOSs.
The intensity of fluorescence is read on a cytofluorimeter at λexcitation=485 nm and λemission=530 nm. This reflects the amount of intracellular AOS produced.
The ratio below makes it possible to calculate the % protection against the production of intracellular AOSs for each product concentration tested (because the intensity of fluorescence or IF reflects the release of intracellular AOSs)
• Pre-incubation: 3 h • Number of tests=3 for all compounds. • Number of tests=18 for vit. E

[3] = tested on: membrane lipids, fibroblast line L929; assay: TBARS test, lipid peroxidation after H2O2/Fe2+/Fe3+; type: cell-based, murin; conditions: 400 μg/ml

## Oc1ccc(O)cc1 [hydroquinone]
[1]
  inhibition at 1 µg/mL: 60%

## O=C(O)/C=C/CCCCCCCCCO [n=8, R=H, Rn=H, R1=H, 12-hydroxy-dodeca-2t-enoic acid]
Interleukin 8
  % inhibition of IL-8 release: Non-active
Prostaglandin 6KF1α
  % inhibiting activity of evaluated molecules on the production of PG6KF1α Inflammation: 32%

## Cc1c(C)c2c(c(C)c1O)CC[C@@](C)(CCC[C@H](C)CCC[C@H](C)CCCC(C)C)O2 [Vit. E, alphatocopherol]
[2]
  Percentage inhibition of the intracellular production of AOS: Vit. E 400 μg/ml 47%
[3]
  % membrane lipid protection, Mean: 44.66%
[3]; listed as Vitamin E
  % membrane lipid protection, Mean: protects cell membranes very effectively
